Measurements taken from ChEMBL document CHEMBL5223163, “In the Quest for Potent and Selective Malic Enzyme 3 Inhibitors for the Treatment of Pancreatic Ductal Adenocarcinoma” (ACS Med Chem Lett, 2023).

What was measured:
[1] = molecular target: NAD-dependent malic enzyme, mitochondrial (Homo sapiens, UniProt P23368); test: (§1) Inhibition of His-tagged human recombinant full length ME2 using L-malate and beta-NAD+ as substrate preincubated with enzyme for 5 mins followed by beta-NAD+ challenge and incubated under shaking for 5 mins followed by incubation for 2 hrs without shaking by resorufin dye based fluorescence analysis
NAD-dependent malic enzyme, mitochondrial, sequence (P23368 whole entry): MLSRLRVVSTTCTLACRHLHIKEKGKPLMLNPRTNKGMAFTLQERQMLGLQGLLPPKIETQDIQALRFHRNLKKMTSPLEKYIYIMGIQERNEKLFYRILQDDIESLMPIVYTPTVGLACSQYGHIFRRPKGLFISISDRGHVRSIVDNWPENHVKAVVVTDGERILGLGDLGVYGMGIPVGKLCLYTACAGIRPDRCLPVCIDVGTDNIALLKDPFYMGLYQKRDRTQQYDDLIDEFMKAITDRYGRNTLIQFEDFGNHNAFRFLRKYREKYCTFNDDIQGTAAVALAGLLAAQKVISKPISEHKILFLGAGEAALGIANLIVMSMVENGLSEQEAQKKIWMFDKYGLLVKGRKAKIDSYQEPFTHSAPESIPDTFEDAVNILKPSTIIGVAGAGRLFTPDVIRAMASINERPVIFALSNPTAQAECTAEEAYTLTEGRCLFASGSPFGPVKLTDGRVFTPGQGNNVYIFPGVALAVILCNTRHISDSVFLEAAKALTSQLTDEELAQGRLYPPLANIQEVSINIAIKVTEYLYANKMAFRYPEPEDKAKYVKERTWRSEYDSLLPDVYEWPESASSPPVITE

[2] = molecular target: T1, NADP-dependent malic enzyme (Homo sapiens, UniProt P48163); test: as §1, with “ME1” for “ME2”, “beta-NADP+” for “beta-NAD+”
T1 sequence (P48163 whole entry): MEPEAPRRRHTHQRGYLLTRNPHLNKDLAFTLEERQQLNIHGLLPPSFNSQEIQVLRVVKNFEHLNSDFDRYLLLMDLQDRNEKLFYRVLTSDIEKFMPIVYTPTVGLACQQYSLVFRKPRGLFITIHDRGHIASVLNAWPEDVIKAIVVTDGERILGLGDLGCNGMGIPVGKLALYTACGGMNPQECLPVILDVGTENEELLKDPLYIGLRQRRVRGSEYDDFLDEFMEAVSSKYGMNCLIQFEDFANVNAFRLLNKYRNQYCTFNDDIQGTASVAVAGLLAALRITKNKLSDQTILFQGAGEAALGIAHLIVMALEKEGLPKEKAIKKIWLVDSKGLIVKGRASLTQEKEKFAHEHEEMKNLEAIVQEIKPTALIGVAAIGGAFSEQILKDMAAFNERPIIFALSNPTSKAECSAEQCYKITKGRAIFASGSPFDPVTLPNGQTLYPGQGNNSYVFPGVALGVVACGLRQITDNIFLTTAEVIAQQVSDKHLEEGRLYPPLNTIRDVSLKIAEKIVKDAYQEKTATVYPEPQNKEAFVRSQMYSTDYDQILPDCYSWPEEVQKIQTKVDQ

[3] = molecular target: T2, NADP-dependent malic enzyme, mitochondrial (Homo sapiens, UniProt Q16798)
T2 sequence (Q16798 whole entry): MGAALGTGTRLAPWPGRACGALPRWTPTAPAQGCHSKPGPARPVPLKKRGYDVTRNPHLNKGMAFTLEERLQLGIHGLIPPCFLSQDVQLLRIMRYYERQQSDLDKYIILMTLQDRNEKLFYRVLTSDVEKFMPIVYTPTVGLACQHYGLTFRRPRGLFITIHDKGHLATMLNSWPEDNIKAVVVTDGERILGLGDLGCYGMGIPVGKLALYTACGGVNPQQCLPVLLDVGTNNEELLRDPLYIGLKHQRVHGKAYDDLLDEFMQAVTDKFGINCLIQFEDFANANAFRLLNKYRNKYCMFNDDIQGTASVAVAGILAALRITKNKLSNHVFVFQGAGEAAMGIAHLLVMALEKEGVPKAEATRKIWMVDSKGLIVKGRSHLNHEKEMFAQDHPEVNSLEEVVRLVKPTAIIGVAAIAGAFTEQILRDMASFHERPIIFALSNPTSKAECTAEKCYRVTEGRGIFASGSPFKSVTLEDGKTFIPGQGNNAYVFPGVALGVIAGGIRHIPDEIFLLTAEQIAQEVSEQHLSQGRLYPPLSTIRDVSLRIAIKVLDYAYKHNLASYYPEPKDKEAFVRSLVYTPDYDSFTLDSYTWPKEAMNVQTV
Description: (§2) Inhibition of His-tagged human recombinant ME3 (26 to 604 residues) using L-malate and beta-NADP+ as substrate preincubated with enzyme for 5 mins followed by beta-NADP+ challenge and incubated under shaking for 5 mins followed by incubation for 3 hrs without shaking by resorufin dye based fluorescence analysis

[4] = molecular target: T3, NADP-dependent malic enzyme, mitochondrial (Homo sapiens) (UniProt Q16798); conditions: dose 0.1 µM, time 190.0 min
T3 sequence (whole entry): T2 sequence (Q16798 whole entry)

[5] = system: BXPC-3; test: Antiproliferative activity against SMAD4/ME2-null human BXPC-3 cells assessed as inhibition of cell growth at 1 uM incubated for 72 hrs by CellTiter-Glo luminescence assay; type: functional
[6] = system: BXPC-3; test: cells; conditions: Homo sapiens, BXPC-3, 72 h, read-out: INH
Description: Antiproliferative activity against SMAD4/ME2-null human BXPC-3 cells assessed as inhibition of cell growth at 10 uM incubated for 72 hrs by CellTiter-Glo luminescence assay

[7] = Selectivity for SMAD4/ME2-null human BXPC-3 cells over human HCE-T cells
[8] = Cytotoxicity against human HCE-T cells assessed as inhibition of cell growth; type: toxicity, cell-based
[9] = system: BXPC-3; test: cells; conditions: Homo sapiens, BXPC-3, 72 h
Description: Antiproliferative activity against SMAD4/ME2-null human BXPC-3 cells assessed as inhibition of cell growth incubated for 72 hrs by CellTiter-Glo luminescence assay

[10] = Lipophilicity, log P of the compound; type: physicochemical; conditions: octanol/water
[11] = molecular target: T2, NADP-dependent malic enzyme, mitochondrial; remark: listed apart in the source
Description: as §2

[12] = system: HUVEC; test: Cytotoxicity against human HUVEC cells assessed as inhibition of cell growth; type: toxicity, cell-based
[13] = molecular target: T3, NADP-dependent malic enzyme, mitochondrial (Homo sapiens); conditions: BXPC-3, dose 100.0 µM, time 24.0 hrs
[14] = molecular target: T3, NADP-dependent malic enzyme, mitochondrial (Homo sapiens); conditions: BXPC-3, Lysates, dose 100.0 µM, time 2.0 hrs

Structure (SMILES) | IC50 ([1]; read-out: IC50) | IC50 ([2]; read-out: IC50) | IC50 [3] | IC50 [9] | inhibition at 10 µM [6] | Selectivity ratio [7] | other results
O=C(Nc1nnn[nH]1)C1c2ccccc2OC2C=CC=CC21 (stereo unspecified) | 200 nM | 220 nM | 21000 nM |  |  |  | 
Oc1ccc(N2CCNCC2)nc1 |  |  |  |  | 12% |  | inhibition [4]: 0%; inhibition at 1 µM [5]: 2%
O=C1CC(N2CCN(c3ccc(O)cc3)CC2)C(=O)N1c1ccccc1 (stereo unspecified) | 200 nM | 220 nM | 150 nM |  | 0% | 5 | 
O=C(Cc1ccccc1)N1CCN(c2ccc(O)nn2)CC1 |  |  |  |  |  |  | IC50 [1]: Not Active; IC50 [2]: Not Active; IC50 [11]: Not Active
O=C(CCc1ccccc1)N1CCN(c2ccc(O)cc2)CC1 | 270 nM | 270 nM | 100 nM | 3600 nM | 93% | 5 | IC50 [8]: > 30000 nM
O=C(Nc1nnn[nH]1)c1cc(-c2ccccc2)nc2ccccc12 | 1700 nM | 13800 nM | 5100 nM |  |  |  | 
COc1ccc(N2CCN(C(=O)CCc3ccccc3)CC2)nc1 |  |  |  |  | 13% |  | 
O=C(Nc1ccccc1)N1CCN(c2ccc(O)cc2)CC1 | 220 nM | 200 nM | 110 nM | 31000 nM | 28% | 5 | 
O=C(Cc1ccccc1)N1CCN(c2ccc(O)cn2)CC1 | 980 nM | 1600 nM | 200 nM |  |  |  | 
O=C(Cc1ccccc1)N1CCN(c2ccc(O)nc2)CC1 |  |  |  |  |  |  | IC50 [1]: Not Active; IC50 [2]: Not Active; IC50 [11]: Not Active
CC(C)CN1CCN(c2ccc(O)cn2)CC1 |  |  |  |  | 6% |  | inhibition [4]: 0%; inhibition at 1 µM [5]: 0%
O=C(C1CC1)N1CCN(c2ccc(O)cn2)CC1 |  |  |  |  | 10% |  | inhibition [4]: 14%; inhibition at 1 µM [5]: 0%
O=C(CCc1ccc(F)cc1)N1CCN(c2ccc(O)cn2)CC1 | 1660 nM | 1740 nM | 410 nM |  | 48% | 5 | 
O=C(CCc1cccs1)N1CCN(c2ccc(O)cn2)CC1 | 1290 nM | 1320 nM | 160 nM | 4600 nM | 76% | 5 | IC50 [8]: 25000 nM
O=C(O)c1cc2ccccc2c(Cc2cc3ccccc3c(C(=O)O)c2O)c1O | 2800 nM | 10300 nM | 5600 nM |  |  |  | 
O=C(CCc1ccccc1)N1CCN(c2ncc(O)cn2)CC1 |  |  |  |  |  |  | IC50 [1]: Not Active; IC50 [2]: Not Active; IC50 [11]: Not Active
COc1ccc(CCC(=O)N2CCN(c3ccc(O)cn3)CC2)cc1 | 2500 nM | 1900 nM | 470 nM |  | 13% | 5 | 
CC(=O)N1CCN(c2ccc(O)cn2)CC1 |  |  |  |  | 0% |  | inhibition [4]: 23%; inhibition at 1 µM [5]: 0%
O=C(Cc1ccccc1)N1CCN(c2ccc(O)cc2)CC1 | 190 nM | 180 nM | 100 nM | 6000 nM | 80% | 5 | 
O=C(CCc1ccccc1)N1CCN(c2ccc(O)cn2)CC1 | 1720 nM | 1500 nM | 230 nM | 5100 nM | 90% | 5 | IC50 [8]: > 30000 nM; Activity [12]: Non-Toxic; ΔTm [13]: 4.9 °C; ΔTm [14]: 7 °C
Oc1ccc(N2CCN(CC3CC3)CC2)nc1 |  |  |  |  | 0% |  | inhibition [4]: 0%; inhibition at 1 µM [5]: 0%

Continued, in another order:

IC50 ([1]; read-out: IC50) | IC50 ([2]; read-out: IC50) | IC50 [3] | IC50 [9] | Structure (SMILES) | inhibition at 10 µM [6] | Selectivity ratio [7] | other results
1110 nM | 1300 nM | 310 nM | 5900 nM | CC(C)(CC(=O)N1CCN(c2ccc(O)cn2)CC1)c1ccc(F)cc1 | 100% | 5 | IC50 [8]: > 30000 nM
410 nM | 210 nM | 330 nM |  | O=C(Cc1ccc(C(F)(F)F)cc1)N1CCN(c2ccc(O)cc2)CC1 | 39% | 5 | 
1630 nM | 1200 nM | 240 nM |  | O=C(CCc1cc2ccccc2s1)N1CCN(c2ccc(O)cn2)CC1 | 46% | 5 | 
2600 nM | 3500 nM | 580 nM |  | COCCOc1ccc(CCC(=O)N2CCN(c3ccc(O)cn3)CC2)cc1 | 3% | 5 | 
1370 nM | 2370 nM | 150 nM | 3500 nM | CC(C)(CC(=O)N1CCN(c2ccc(O)cn2)CC1)c1ccccc1 | 99% | 5 | logP [10]: 3.41; IC50 [8]: > 30000 nM
360 nM | 340 nM | 110 nM |  | O=C(CN1CCN(c2ccc(O)cc2)CC1)Nc1ccccc1 | 18% | 5 | 
 |  | 70 nM |  | O=C(Cc1ccccc1)NC1CCN(c2ccc(O)cc2)CC1 |  |  | 
230 nM | 170 nM | 80 nM |  | O=C(/C=C/c1ccccc1)N1CCN(c2ccc(O)cc2)CC1 | 29% | 5 | 
150 nM | 150 nM | 130 nM | 5700 nM | O=C(Cc1ccc(Cl)cc1)N1CCN(c2ccc(O)cc2)CC1 | 80% | 5 | 
 |  | 130 nM |  | O=C(Nc1ccccc1)C1CCN(c2ccc(O)cc2)CC1 |  |  | 
270 nM | 150 nM | 120 nM | 5200 nM | CC(C)(CC(=O)N1CCN(c2ccc(O)cc2)CC1)c1ccccc1 | 85% | 5 | IC50 [8]: > 30000 nM; Activity [12]: Non-Toxic
 |  |  | > 30000 nM | O=C(CCc1ccccc1)N1CCN(c2ccc(F)cn2)CC1 | 0% |  | 
350 nM | 420 nM | 60 nM |  | CCCCOc1ccc(CCC(=O)N2CCN(c3ccc(O)cc3)CC2)cc1 | 29% | 5 | 
2800 nM | 1500 nM | 360 nM | 5400 nM | CC(C)(CC(=O)N1CCN(c2ccc(O)cn2)CC1)c1ccc(Cl)cc1 | 97% | 5 | IC50 [8]: > 30000 nM
3900 nM | 1310 nM | 390 nM | 15000 nM | CCCCOc1ccc(CCC(=O)N2CCN(c3ccc(O)cn3)CC2)cc1 | 7% | 5 | 
390 nM | 630 nM | 130 nM |  | O=C(COc1ccccc1)N1CCN(c2ccc(O)cc2)CC1 | 55% | 5 | 
1590 nM | 1020 nM | 140 nM | 6300 nM | O=C(CCc1ccc(Cl)cc1)N1CCN(c2ccc(O)cn2)CC1 | 71% | 5 | IC50 [8]: > 30000 nM
